Laboratory results from ChEMBL document CHEMBL4834393, “Building a Chemical Toolbox for Human Pregnane X Receptor Research: Discovery of Agonists, Inverse Agonists, and Antagonists Among Analogs Based on the Unique Chemical Scaffold of SPA70” (J Med Chem, 2021).

Columns and labels:
PXR (NR1I2) [1] = target: T1, PXR (NR1I2) (Homo sapiens, UniProt O75469); assay: Inhibition of human PXR expressed in HepG2 cells co-expressing luciferase gene under control of CYP3A4 promoter at 10 uM incubated for 24 hrs in presence of 5 uM rifampicin by luciferase reporter assay relative to control; format: cell-based
T1 sequence (O75469 whole entry): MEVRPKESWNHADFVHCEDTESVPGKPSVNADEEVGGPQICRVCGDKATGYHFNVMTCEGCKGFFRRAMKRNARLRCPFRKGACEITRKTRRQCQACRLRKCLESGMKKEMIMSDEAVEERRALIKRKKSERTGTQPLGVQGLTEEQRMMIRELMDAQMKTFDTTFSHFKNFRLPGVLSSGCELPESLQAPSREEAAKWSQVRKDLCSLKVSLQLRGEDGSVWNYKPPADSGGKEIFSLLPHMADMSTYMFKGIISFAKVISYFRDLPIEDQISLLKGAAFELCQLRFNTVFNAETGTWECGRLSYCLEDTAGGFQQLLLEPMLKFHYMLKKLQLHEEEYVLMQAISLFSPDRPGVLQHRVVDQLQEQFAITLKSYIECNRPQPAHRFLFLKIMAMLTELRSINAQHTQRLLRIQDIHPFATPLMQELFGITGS

PXR (NR1I2) [2] = target: T1, PXR (NR1I2); assay: Agonist activity at human PXR expressed in HepG2 cells co-expressing luciferase gene under control of CYP3A4 promoter at 10 uM incubated for 24 hrs by luciferase reporter assay relative to control
[3] = target: T2, Nuclear receptor subfamily 1 group I member 2 (Homo sapiens, UniProt O75469); assay: Displacement of BODIPY FL vindoline from GST-tagged human PXR LBD incubated for 60 mins by TR-FRET assay
T2 sequence (O75469 whole entry): T1 sequence (O75469 whole entry)

[4] = target: T2, Nuclear receptor subfamily 1 group I member 2; assay: Agonist activity at human PXR expressed in HepG2 cells co-expressing luciferase gene under control of CYP3A4 promoter incubated for 24 hrs by luciferase reporter assay
PXR (NR1I2) [5] = target: T1, PXR (NR1I2); assay: Displacement of BODIPY FL vindoline from GST-tagged human PXR LBD at 10 uM incubated for 60 mins by TR-FRET assay relative to control; details: GST-tagged human PXR LBD (recombinant protein), probe BODIPY FL vindoline
[6] = target: T2, Nuclear receptor subfamily 1 group I member 2; assay: Antagonist activity at human PXR expressed in HepG2 cells co-expressing luciferase gene under control of CYP3A4 promoter incubated for 24 hrs in presence of 5 uM rifampicin by luciferase reporter assay
HepG2 = assay: Cytotoxicity against human HepG2 cells co-expressing luciferase gene under control of CYP3A4 promoter measured after 24 hrs by CellTiter-Glo luminescent cell viability assay; format: ADME, cell-based; details: Homo sapiens, HepG2, 24 h

Compound | inhibition at 24 h, 10 µM (PXR (NR1I2) [1]) [%] | activity at 24 h, 10 µM (PXR (NR1I2) [2]) [%] | IC50 [3] [nM] | EC50 [4] [nM] | inhibition at 1 h, 10 µM (PXR (NR1I2) [5]) [%] | IC50 [6] [nM] | IC50 (HepG2) [nM]
COc1cc(-n2nnc(S(=O)(=O)c3ccc(C(C)(C)C)cc3)c2C)c(OC)cc1C | 30 | 75 | 500 | 600 | 73 | – | –
COc1ccc(OC)c(-n2nnc(S(=O)(=O)c3ccc(C(C)(C)C)cc3)c2C#N)c1 | 38 | 88 | 300 | 260 | 97 | 2400 | –
COc1cc(-n2nnc(S(=O)(=O)c3ccc(C(C)(C)C)cc3)c2C)c(OC)cc1F | 72 | 24 | 4000 | 1000 | 87 | 2000 | –
COc1ccc(Cl)cc1-n1nnc(S(=O)(=O)c2ccc(C(C)(C)C)cc2)c1N | 78 | 42 | 500 | 110 | 93 | 4400 | –
COc1ccc(C)cc1-n1nnc(S(=O)(=O)c2ccc(C(C)(C)C)cc2)c1N | 46 | 73 | 280 | 160 | 88 | 3300 | –
COc1cc(C#N)c(C)cc1-n1nnc(S(=O)(=O)c2ccc(C(C)(C)C)cc2)c1C | 33 | 58 | 1070 | 1600 | 48 | 4000 | –
COc1ccccc1-n1nnc(S(=O)(=O)c2ccc(C(C)(C)C)cc2)c1C | 53 | 56 | 530 | 800 | 103 | 1000 | –
COc1cc(C)c(Cl)cc1-n1nnc(S(=O)(=O)c2ccc(C(C)(C)C)cc2)c1C | 64 | 33 | 1200 | 1000 | 87 | 2300 | –
COc1ccc(CO)cc1-n1nnc(S(=O)(=O)c2ccc(C(C)(C)C)cc2)c1C | 64 | 82 | 1400 | 810 | 95 | 2000 | –
COc1ccc(OC)c(-n2cc(S(=O)(=O)c3ccc(C(C)(C)C)cc3)nn2)c1 | 71 | 35 | 1400 | 1400 | 98 | 3400 | –
COc1ccc(C)cc1-n1nnc(S(=O)(=O)c2ccc(C(C)(C)C)cc2)c1C#N | – | 131 | 210 | 160 | 97 | – | –
COc1ccc(C)cc1-c1ncc(S(=O)(=O)c2ccc(C(C)(C)C)cc2)n1C | – | 74 | 1600 | 990 | 92 | – | –
COc1cc(-n2nnc(S(=O)(=O)c3ccc(C(C)(C)C)cc3)c2C)c(OC)cc1C(C)=O | – | 97 | 900 | 500 | 48 | – | –
COc1ccc(OC)c(-n2nnc(S(=O)(=O)Cc3ccccc3)c2C)c1 | – | 130 | 1000 | 3400 | 90 | – | –
COc1ccc(Cl)cc1-c1ncc(S(=O)(=O)c2ccc(C(C)(C)C)cc2)n1C | – | 81 | 550 | 1210 | 60 | – | –
COc1cc(C(C)C)c(Cl)cc1-n1nnc(S(=O)(=O)c2ccc(C(C)(C)C)cc2)c1C | – | 99 | 1100 | 1800 | 73 | – | –
COc1ccc(OC)c(-c2ncc(S(=O)(=O)c3ccc(C(C)(C)C)cc3)[nH]2)c1 | – | 86 | 3080 | 700 | 68 | – | –
COc1ccc(C)cc1-c1nc(C)c(S(=O)(=O)c2ccc(C(C)(C)C)cc2)n1C | – | 89 | 400 | 1000 | 73 | – | –
COc1cc(Cl)c(C)cc1-n1nnc(S(=O)(=O)c2ccc(C(C)(C)C)cc2)c1C | 57 | 51 | 700 | 800 | 71 | 2000 | –
COc1cc(C#N)c(Cl)cc1-n1nnc(S(=O)(=O)c2ccc(C(C)(C)C)cc2)c1C | 44 | 49 | 600 | 1000 | 40 | 3400 | –

Compound | inhibition at 24 h, 10 µM (PXR (NR1I2) [1]) [%] | activity at 24 h, 10 µM (PXR (NR1I2) [2]) [%] | IC50 [3] [nM] | EC50 [4] [nM] | inhibition at 1 h, 10 µM (PXR (NR1I2) [5]) [%] | IC50 [6] [nM] | IC50 (HepG2) [nM]
COc1cc(-n2nnc(S(=O)(=O)c3ccc(C(C)(C)C)cc3)c2C)c(OC)cc1Cl | – | 63 | 900 | 600 | 73 | – | –
COC(=O)c1cc(OC)c(-n2nnc(S(=O)(=O)c3ccc(C(C)(C)C)cc3)c2C)cc1OC | – | 78 | 2300 | 3400 | 72 | – | –
CCc1cc(OC)c(-n2nnc(S(=O)(=O)c3ccc(C(C)(C)C)cc3)c2C)cc1C | – | 138 | 1000 | 900 | 76 | – | –
COc1ccc(OC)c(-n2nnc(S(=O)(=O)c3ccc(O)cc3)c2C)c1 | – | 138 | 8000 | 22000 | 95 | – | –
COC(=O)c1cc(OC)c(-n2nnc(S(=O)(=O)c3ccc(C(C)(C)C)cc3)c2C)cc1Cl | 51 | 62 | 700 | 1900 | 35 | 10000 | –
COC(=O)c1cc(OC)c(-n2nnc(S(=O)(=O)c3ccc(C(C)(C)C)cc3)c2C)cc1C | 32 | 75 | 1500 | 1600 | 64 | 6000 | –
COc1ccc(C)cc1-n1cc(S(=O)(=O)c2ccc(C(C)(C)C)cc2)nn1 | 44 | 69 | 500 | 600 | 98 | 5000 | –
COc1cc(Br)c(C)cc1-n1nnc(S(=O)(=O)c2ccc(C(C)(C)C)cc2)c1C | – | 87 | 2200 | 1300 | 77 | – | –
COc1ccc(OC)c(-n2nnc(S(=O)(=O)c3ccccc3)c2C)c1 | – | 105 | 2000 | 2500 | 92 | – | –
COc1cc(Br)c(Cl)cc1-n1nnc(S(=O)(=O)c2ccc(C(C)(C)C)cc2)c1C | 38 | 26 | 550 | 600 | 67 | – | –
COc1ccc(OC)c(-n2nnc(S(=O)(=O)c3ccc(C(C)(C)C)cc3)c2N)c1 | 52 | 53 | 180 | 430 | 85 | 1700 | –
COc1ccc(C)cc1-c1nc(C)c(S(=O)(=O)c2ccc(C(C)(C)C)cc2)[nH]1 | – | 106 | 800 | 1800 | 82 | – | –
COc1ccc(OC)c(-n2nnc(S(=O)(=O)c3ccc(N)cc3)c2C)c1 | – | 74 | 5000 | 7000 | 89 | – | –
COc1ccc(OC)c(-n2nnc(S(=O)(=O)c3ccc(C)cc3)c2C)c1 | – | 90 | 3800 | 2100 | 104 | – | –
COc1ccc(C)cc1-c1ncc(S(=O)(=O)c2ccc(C(C)(C)C)cc2)[nH]1 | – | 102 | 1400 | 700 | 77 | – | –
COc1cc(-n2nnc(S(=O)(=O)c3ccc(C(C)(C)C)cc3)c2C)c(OC)cc1C#N | – | 88 | 360 | 1100 | 36 | – | –
COc1ccc([C@@H](C)O)cc1-n1nnc(S(=O)(=O)c2ccc(C(C)(C)C)cc2)c1C | – | 123 | 1100 | 440 | 94 | – | –
COc1cc(C(C)=O)c(C)cc1-n1nnc(S(=O)(=O)c2ccc(C(C)(C)C)cc2)c1C | 111 | 77 | 1400 | 400 | 80 | 9000 | 16500
COc1cc(-n2nnc(S(=O)(=O)c3ccc(C(C)(C)C)cc3)c2C)c(OC)cc1Br | – | 91 | 700 | 600 | 46 | – | –
